The source of these data is patent US8674096B2, “Substituted imidazo[1,5-a]quinoxalin-4-ones as phosphodiesterase 9 inhibitors” (priority 2009, dated 2014).

What is called IC50 is the concentration needed to halve the response being measured. A low value points to higher potency. What is called melting point is the temperature, or range, at which the solid turns liquid.

In one series the target is T1, PDE9 (Homo sapiens, UniProt O76083).
T1 construct: made in house
T1 sequence (O76083 whole entry): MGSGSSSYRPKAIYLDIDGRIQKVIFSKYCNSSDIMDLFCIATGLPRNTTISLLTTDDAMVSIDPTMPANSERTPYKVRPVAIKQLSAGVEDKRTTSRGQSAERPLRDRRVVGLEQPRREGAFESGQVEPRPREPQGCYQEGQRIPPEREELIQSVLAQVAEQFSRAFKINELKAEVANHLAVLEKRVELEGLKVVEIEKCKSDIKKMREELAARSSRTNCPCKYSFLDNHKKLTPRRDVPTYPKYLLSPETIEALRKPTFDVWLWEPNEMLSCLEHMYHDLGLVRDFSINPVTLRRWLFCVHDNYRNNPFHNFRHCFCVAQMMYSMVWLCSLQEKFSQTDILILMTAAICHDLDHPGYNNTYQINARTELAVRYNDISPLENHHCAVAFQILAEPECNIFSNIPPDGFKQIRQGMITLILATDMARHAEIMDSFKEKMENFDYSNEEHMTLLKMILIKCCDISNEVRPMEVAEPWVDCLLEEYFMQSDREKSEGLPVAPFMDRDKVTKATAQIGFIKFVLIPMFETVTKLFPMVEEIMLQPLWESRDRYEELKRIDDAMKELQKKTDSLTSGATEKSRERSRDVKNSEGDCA
Kind of series: PDE9-inhibiting activity (SPA, 3H-cGMP degradation). The class given is biochemical. As for the experimental part:
The PDE9 used in the present experiment was expressed/purified by the method as in, for example, Guipponi et al., and Fisher et., al. (Fisher, D. A., et al., J. Biol. Chem., 273: pp. 15559-15564 (1998), Guipponi, M., et al., Hum. Genet., 103: pp. 386-392 (1998)).
The PDE9-inhibiting activity was measured by the following method. That is, to a buffer solution containing tris(hydroxymethyl)aminomethane-hydrochloric acid (40 mM, pH 8.0), magnesium chloride (5 mM), and 2-mercaptoethanol (4 mM) were added cGMP (1 μM) and ^3H-cGMP (0.33 μCi/ml) to give a substrate buffer solution. A test substance solution and an enzyme solution which had been adjusted to an optimal concentration were added thereto to perform a reaction at 30° C. The enzyme reaction was stopped by the addition of Scintillation Proximity Assay (SPA) Beads (GE Healthcare, UK) containing 5 mM 3-isobutyl-1-methylxanthine (IBMX). For the enzyme activity, the amount of 5′-GMP, which is a reaction degradation product bound to SPA beads, was measured with a TopCount microplate reader (Hewlett Packard, USA).
The inhibitory rate was calculated by taking the radioactivity of the control containing no test substance as (A), taking the radioactivity of the blank containing no enzyme as (B), and taking the radioactivity of the test substance as (C), and using the following equation. Inhibitory rate=100−{(C)−(B)/(A)−(B)}×100(%)
Take `Cc1cc2c(cc1C(=O)N1CCc3ccccc31)[nH]c(=O)c1cnc(C3CCCC3)n12` [Example 3, 1-cyclopentyl-7-(2,3-dihydro-1H-indol-1-ylcarbonyl)-8-methylimidazo[1,5-a]quinoxalin-4(5H)-one]: half-maximal inhibition (IC50) was put at 6.7 nM.
Same read-out and setting: the same measure for `O=C(c1ccc2c(c1)[nH]c(=O)c1nnc(-c3ccc(O)cc3)n12)N1CCc2c(Cl)cccc2C1` [Example 4, 7-[(5-chloro-3,4-dihydroisoquinolin-2(1H)-yl)carbonyl]-1-(4-hydroxyphenyl)[1,2,4]triazolo[4,3-a]quinoxalin-4(5H)-one]: 19 nM; for `Cc1cc2c(cc1C(=O)N1CCc3ccccc3C1c1ccncc1)[nH]c(=O)c1nnc(-c3ccc(O)c(Cl)c3)n12` (centres unmarked) [Example 5, 1-(3-chloro-4-hydroxyphenyl)-8-methyl-7-[(1-pyridin-4-yl-3,4-dihydroisoquinolin-2(1H)-yl)carbonyl][1,2,4]triazolo[4,3-a]quinoxalin-4(5H)-one]: 2.3 nM; for `Cc1cc2c(cc1C(=O)N1CCc3cc(Cl)ccc31)[nH]c(=O)c1nnc(C(F)C3CC3)n12.Cl` (centres unmarked) [Example 11, 7-[(5-chloro-2,3-dihydro-1H-indol-1-yl)carbonyl]-1-[cyclopropyl(fluoro)methyl]-8-methyl[1,2,4]triazolo[4,3-a]quinoxalin-4(5H)-one]: 3.1 nM.
As for `Cc1cc2c(cc1C(=O)N1CCc3nc4ncccc4cc3C1)[nH]c(=O)c1cnc(C3CCOCC3)n12` [Example 71], the IC50 was determined as 9.2 nM.
Compound `CCCc1nnc2c(=O)[nH]c3cc(C(=O)N(C)Cc4cccc(Cl)c4)ccc3n12` [Example 134] showed an IC50 of 950 nM.
Compound `Cc1cc2c(cc1C(=O)N1CCc3cc(F)ccc31)[nH]c(=O)c1cnc(C3CCCOC3)n12` (centres unmarked) [Example 318] gave an IC50 of 5.9 nM.
Compound `Cc1cc2c(cc1C(=O)N1CCc3cc(Cl)c(F)cc31)[nH]c(=O)c1nnc(C3CCCC3)n12` [Example 324] gave an IC50 of 1.7 nM.
Still for that read-out and setting: the same measure for `Cc1cc2c(cc1C(=O)N1CCc3cc(Br)cnc31)[nH]c(=O)c1nnc(C3CC(F)(F)C3)n12` [Example 346]: 27 nM; for `Cc1cc2c(cc1C(=O)N1CCc3cc(F)cnc31)[nH]c(=O)c1nnc(C3CCOCC3)n12` [Example 352]: 12 nM.
Still for that read-out and setting: the same measure for `Cc1cc2c(cc1C(=O)N1CC(C)(C)c3cc(Cl)ccc31)[nH]c(=O)c1cnc(C3CCOCC3)n12` [Example 516]: 0.8 nM.

System in the next series: not given
Experiment: not given
Turning to `Cl.O=C(c1cc2[nH]c(=O)c3cnc(C4CCOCC4)n3c2cc1C1CC1)N1Cc2ccccc2C1`, the melting point is 185 to 189 °C (dec.).
For `COc1cc2c(cc1C(=O)N1CCc3cc(C)cnc31)[nH]c(=O)c1cnc(C3CCOCC3)n12`, the melting point was 288 °C (dec.).
Consider `Cc1cc2c(cc1C(=O)N1CCc3cc(Cl)ccc31)[nH]c(=O)c1cnc([C@H]3CC[C@H](O)CC3)n12.Cl`, for which the melting point was in the range of 207 to 209 °C.
Regarding `Cc1cc2c(cc1C(=O)N1CCc3cc(Cl)ccc31)[nH]c(=O)c1nnc(CC3CC3)n12`, the melting point lay within 303 to 305 °C.
Still for that read-out and setting: the same measure for `COc1cc2c(cc1C(=O)N1CCOC(c3ccccc3)C1)[nH]c(=O)c1cnc(C3CCCCC3)n12.Cl` (centres unmarked): 182 to 186 °C.
On to `Cc1cc2c(cc1C(=O)N1CCc3c(Cl)cccc3C1)[nH]c(=O)c1nnc(C3CCOCC3)n12`, for which the melting point is 269 °C (dec.).
Same read-out and setting: the same measure for `Cc1cc2c(cc1C(=O)N1Cc3ccccc3C1)[nH]c(=O)c1nnc([C@@H]3CCC[C@@H]3O)n12` (racemic): 316 °C (dec.); for `Cc1cc2c(cc1C(=O)N1Cc3ccccc3C1)[nH]c(=O)c1cnc([C@@H]3CCC[C@@H]3O)n12` (racemic): 301 to 302 °C (dec.); for `Cc1cc2c(cc1C(=O)N1CCc3cc(Cl)ccc31)[nH]c(=O)c1cnc([C@@H]3CCC[C@@H]3O)n12` (racemic) [Example 343]: 238 to 240 °C.
On the same count and under the same terms, next, `Cc1cc2c(cc1C(=O)N1CCc3ccccc31)[nH]c(=O)c1cnc(C3CCCC3)n12` [Example 3, 1-cyclopentyl-7-(2,3-dihydro-1H-indol-1-ylcarbonyl)-8-methylimidazo[1,5-a]quinoxalin-4(5H)-one]: 291 °C (dec.); `O=C(c1ccc2c(c1)[nH]c(=O)c1nnc(-c3ccc(O)cc3)n12)N1CCc2c(Cl)cccc2C1` [Example 4, 7-[(5-chloro-3,4-dihydroisoquinolin-2(1H)-yl)carbonyl]-1-(4-hydroxyphenyl)[1,2,4]triazolo[4,3-a]quinoxalin-4(5H)-one]: 373 °C (dec.).
Same read-out and setting: next, `Cc1cc2c(cc1C(=O)N1CCc3cc(Cl)ccc31)[nH]c(=O)c1nnc(C(F)C3CC3)n12.Cl` (centres unmarked) [Example 11, 7-[(5-chloro-2,3-dihydro-1H-indol-1-yl)carbonyl]-1-[cyclopropyl(fluoro)methyl]-8-methyl[1,2,4]triazolo[4,3-a]quinoxalin-4(5H)-one]: 309 to 311 °C.
